Source: US20190369111A1, “MOLECULAR KINETICS EVALUATION METHOD AND SCREENING METHOD” (Tokyo University of Science Foundation, priority 2016, published 2019)
Non-standard residues stand in square brackets, D forms with d. Residues, ends and D or L forms follow the SMILES beside them. Nle = CCCC[C@H](N)C(=O)O

What was measured:
endogenous DHFR protein = target: T1, endogenous DHFR protein (Homo sapiens, UniProt P00374); test: Degradation of endogenous DHFR protein in HeLa cells, Western blot analysis; type: cell-based; details: 50 μM, 100 μM or 200 μM, 16 hours after addition
T1 construct: degradation (knockdown) of an endogenous DHFR protein in HeLa cells; endogenous in cells; host or cells: HeLa cells
T1 sequence (P00374 1-187): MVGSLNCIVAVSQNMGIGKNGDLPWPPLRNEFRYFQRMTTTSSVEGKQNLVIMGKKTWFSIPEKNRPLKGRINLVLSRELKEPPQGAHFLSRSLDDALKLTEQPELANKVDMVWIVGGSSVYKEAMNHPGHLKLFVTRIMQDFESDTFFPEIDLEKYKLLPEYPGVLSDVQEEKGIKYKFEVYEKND

DHFR protein = target: T2, DHFR protein (Mus musculus, UniProt P00375); test: Degradation of DHFR protein in each tissue of mouse after administration, Western blot analysis; type: in vivo
T2 construct: administered intraperitoneally to C57BL/6J wild-type mice; from tissue; host or cells: C57BL/6J wild-type mice: liver, kidneys, heart
T2 sequence (P00375 1-187): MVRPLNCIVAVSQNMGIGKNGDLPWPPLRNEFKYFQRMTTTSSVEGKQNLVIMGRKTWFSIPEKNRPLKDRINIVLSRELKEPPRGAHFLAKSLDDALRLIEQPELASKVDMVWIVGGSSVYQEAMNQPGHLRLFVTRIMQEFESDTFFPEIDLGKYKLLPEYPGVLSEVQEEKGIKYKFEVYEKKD
Description: MTX-CANDDY_MLN was dissolved in DMSO immediately before administration, and then dissolved in corn oil (Code No. 25606-55, Nacalai Tesque) so that the concentration of DMSO was 10 vol %, and then a dose of 50 mg/kg body weight or 100 mg/kg body weight was administered intraperitoneally to C57BL/6J wild-type mice (7 weeks old, male) (CLEA Japan, Inc.) (n=3). […] As a control, an injection carrier (corn oil containing 10 vol % DMSO) was used. The mice were kept under an environment of ad libitum access to food and water. The mice were dissected under deep anesthesia by Somnopentyl (Kyoritsu Seiyaku Corporation) 24 hours after administration. Abdominal section was performed, and then the liver, kidneys, and heart were sequentially extracted and flash frozen in liquid nitrogen. Each tissue frozen in liquid nitrogen was stored in a deep freezer at −80° C.
The frozen tissues (0.04 g) were each frozen and triturated, and then 980 μL of 1×TKM tissue lysis buffer (50 mM triethanolamine (pH 7.8), 50 mM KCl, 5 mM MgCl2, 0.25 M sucrose, 1 mM PMSF, protein inhibitors cocktail-EDTA free (Code No. 03969-21, Nacalai Tesque, Inc.), 1 mM DTT, and 5 μL/mL recombinant RNase inhibitor (40 U/μL, Cat No. 2313A, Lot No. K8402DA, TAKARA Bio)) were added, and dissolved by rotation for 15 minutes (1 rpm, 25° C.). Then, the resultant product was subjected to centrifugation (at 3000 rpm×15 minutes, 4° C.), and the supernatants (each tissue extract) were collected. The concentration of proteins in each tissue extract was quantified with a spectrophotometer using each tissue extract that had been diluted 20 times using DEPC-treated water.
Each tissue extract collected was subjected to Western blot analysis. An SDS-PAGE gel was prepared using TGX™ FastCast™ Acrylamide Kit, 12% (Bio-Rad). Electrophoresis samples were prepared in a 6×SDS-PAGE sample buffer (62.5 mM Tris-HCl pH 6.8, 2% SDS, 5% 2-mercaptoethanol, 10% glycerol, 0.25% BPB), and placed on a heat block at 95° C. for 5 minutes. The electrophoresis samples prepared were applied at 50 μg/well for detection of GAPDH, and applied at 100 μg/well for other detection. Electrophoresis was performed at 160 V for 60 minutes (electrophoresis buffer; 195 mM glycine, 25 mM Tris).
After electrophoresis, proteins were transferred to a PVDF membrane (Immobion™-P, Millipore) under conditions of 100 V and 1.5 hours using a tank-type blotting device and a transfer buffer (25 mM Tris-HCl, 195 mM glycine, 0.01% SDS, 15% methanol). […] Subsequently, the membrane was treated with a chemiluminescence reagent Immobilon™ Western (Millipore), and then chemiluminescence was detected using a lumino image analyzer LAS-3000 (FUJIFILM Corporation). Detected bands were quantified with an image processing software ImageJ (NIH).

[1] = target: T3, catalytic subunit β1 of a proteasome (caspase-like activity) (Homo sapiens, UniProt P28072); test: 20S proteasome inhibitory activity, catalytic subunit β1; type: biochemical; details: AMC fluorescence substrate
T3 construct: purchased Bioscience
Description: (§1) For evaluation, 20S Proteasome StressXpress™ Assay Kit Gold (Bioscience) was used. AMC was measured by using Multi-Detection Microplate Reader (Synergy HT, BIO-TEK). The AMC was produced by cleaving the C-terminus of an AMC-binding proteasome fluorescence substrate specific to β subunits of a 20S proteasome, including β5 (chymotrypsin-like activity), β2 (trypsin-like activity), and β1 (caspase-like activity). The measuring wavelengths were 360 nm for excitation light (Ex.), and 460 nm for fluorescence (Em.).
(§2) In Reference Example 11, as in Reference Example 4, a proteasome inhibitory activity of TMP-CANDDY_ALLN and an affinity of TMP-CANDDY_ALLN with a proteasome were evaluated.

[2] = target: T4, catalytic subunit β2 of the proteasome (trypsin-like activity) (Homo sapiens, UniProt Q99436); test: 20S proteasome inhibitory activity, catalytic subunit β2; type: biochemical; details: AMC fluorescence substrate
T4 construct: purchased Bioscience
Description: as §1, §2

[3] = target: T5, catalytic subunit β5 of the proteasome (chymotrypsin-like activity) (Homo sapiens, UniProt P28074); test: 20S proteasome inhibitory activity, catalytic subunit β5; type: biochemical; details: AMC fluorescence substrate
T5 construct: purchased Bioscience
Description: as §1, §2

20S proteasome = target: T6, 20S proteasome (Homo sapiens, UniProt P28072+P28074+Q99436); test: Affinity with a proteasome evaluated from 20S proteasome assay kit; type: biochemical; details: suggested from concentration dependent inhibitory activity against β1, β2, β5
T6 construct: purchased Bioscience
Description: In Reference Example 2, the proteasome inhibitory activity of TMP-CANDDY_DMT and the affinity of TMP-CANDDY_DMT with a proteasome were evaluated. As a positive control, MG-132 as a proteasome inhibitor was used.
as §1, §2

ecDHFR protein [4] = target: T7, ecDHFR protein (Escherichia coli, UniProt P0ABQ4); type: cell-based, human; details: HeLa cells, 24 hours after addition, vs control (DMSO)
T7 construct: expressed in transfected cells; host or cells: HeLa cells, transient transfection with pMIR-DsRed-IRES-ecDHFR-HA-GFP

ecDHFR protein [5] = target: T7, ecDHFR protein; type: cell-based, human; details: HeLa cells
[6] = target: T3, catalytic subunit β1 of a proteasome (caspase-like activity); details: reported by Kaiser, M. et al., 2004; patent's result consistent; cited from earlier work

With `CC(C)C[C@H](NC(=O)CNC(=O)c1cc(Cl)ccc1Cl)C(=O)NCCCCCCNC(=O)CC[C@H](NC(=O)c1ccc(N(C)Cc2cnc3nc(N)nc(N)c3n2)cc1)C(=O)O` [MTX-CANDDY_MLN] the “amount of endogenous DHFR protein” value (endogenous DHFR protein) was “decreased in a concentration dependent manner”, the “amount of DHFR protein in heart” value (DHFR protein; intraperitoneal 50 or 100 mg/kg body weight, 24 hours after administration, heart) was “reduction in the amount of the DHFR protein was not found” and the “amount of DHFR protein in kidneys” value (DHFR protein; intraperitoneal 50 or 100 mg/kg body weight, 24 hours after administration, kidneys) was “reduced in a concentration dependent manner”. The “amount of DHFR protein in liver” value (DHFR protein; intraperitoneal 50 or 100 mg/kg body weight, 24 hours after administration, liver) was “reduced in a concentration dependent manner” and the “transfer property to tissues (molecular kinetics)” value (DHFR protein; suggested from DHFR degradation in tissues) was “showed a higher transfer property in the liver and kidneys, as compared with the heart”.
With `COc1nc(NCCCCCCNC(=O)COc2c(OC)cc(Cc3cnc(N)nc3N)cc2OC)nc(OC)n1` [TMP-CANDDY_DMT] the “proteasome inhibitory activity against β1 (caspase-like activity)” value [1] was “significantly lower proteasome inhibitory activity as compared with MG-132”, the “proteasome inhibitory activity against β2 (trypsin-like activity)” value [2] was “significantly lower proteasome inhibitory activity as compared with MG-132” and the “proteasome inhibitory activity against β5 (chymotrypsin-like activity)” value [3] was “significantly lower proteasome inhibitory activity as compared with MG-132”. The “affinity with a proteasome” value (20S proteasome) was “moderate affinity with a proteasome”, the “degradation (knockdown) of ecDHFR protein (shift of GFP/DsRed ratio graph)” value (ecDHFR protein [4]) was “degradation of the ecDHFR protein was induced” and the “amount of ecDHFR protein” value (ecDHFR protein [5]; 24 hours after addition, cycloheximide 50 μg/mL added after 12 hours) was “the amount of the ecDHFR protein was reduced”. For the same molecule, the “degradation of ecDHFR protein when bortezomib is added together” value (ecDHFR protein [5]; both TMP-CANDDY_DMT and bortezomib added, compared with TMP-CANDDY_DMT alone) was “degradation of the ecDHFR protein was inhibited”.
In the case of `CCCC[C@@H](C=O)NC(=O)[C@H](CC(C)C)NC(=O)[C@H](CC(C)C)NC(C)=O` [ALLN, Calpain inhibitor I] (Ac-Leu-Leu-[Nle]-aldehyde), the “inhibition of β1 (caspase-like activity)” value [6] is given as “not inhibited”.
